According to US20120171123A1, “USES AND COMPOSITIONS FOR TREATMENT OF RHEUMATOID ARTHRITIS” (priority 2006, published 2012):

System: patients with RA
Assay: RAPID (routine Apgar-like patient index datasheet) score in 4 adalimumab clinical trials
Type: in vivo, human
Details: for RAPID (R326), Difference: baseline vs endpoint
Protocol: All 1,391 patients in these trials were evaluated in this study. The RAPID index is based on patient self-report data on a Health Assessment Questionnaire (HAQ), recalibrated to 0-10, based on the following criteria: physical function (0-3): 0=0-0.25, 1=0.26-0.75, 2=0.76-1.5, and 3=1.51-3.0; pain visual analog scale (VAS) (0-3): 0=0-10, 1=11-30, 2=31-60, and 3=61-100; and patient's global status VAS (0-4): 0=0-10, 1=11-25, 2=26-50, 3=51-75, and 4=76-100. All patients were classified at baseline as having a DAS28<5.1 or ≧5.1 or RAPID <5.0 or ≧5.0, the higher values for each indicating severe disease. DAS28 was calculated using swollen joint count, tender joint count, patient's global assessment of disease activity and C-reactive protein (CRP) concentration. Spearman rank correlations and box plots to compare RAPID scores with DAS28 were also analyzed.
Several rescalings of the physical function, pain, and patient's global assessment scales were calculated. The physical function scale is scored 0-3, and was rescaled to 0-3. The pain visual analog scale (VAS) is scored 0-10 and was also rescaled to 0-3. The global VAS is scored 0-10 and was rescaled to 0-4. Thus, the total of the 3 scores ranges from 0-10. Scores were calculated for both continuous and categorical indices. The DAS28 was calculated from the SJC, TJC, patient's global score, and C-reactive protein.

[1] = Study 2 (adalimumab monotherapy)
[2] = Study K (adalimumab with other DMARDs)

## adalimumab: human anti-TNF mAb (HUMIRA, Abbott Laboratories), described in U.S. Pat. No. 6,090,382 as D2E7
Study 1 (adalimumab with MTX)
  RAPID (R326), Endpoint: 3.86
  RAPID (R326), Difference: 3.22
[1]
  RAPID (R326), Endpoint: 5.88
  RAPID (R326), Difference: 2.70
Study I (adalimumab with MTX)
  RAPID (R326), Endpoint: 3.84
  RAPID (R326), Difference: 3.43
[2]
  RAPID (R326), Endpoint: 4.22
  RAPID (R326), Difference: 2.79
